The values below come from paper PMC2858921 (Toxicology and applied pharmacology, 2008).

Molecules are shown by their SMILES. “Also recorded” adds a separate entry of the source. Where two headings read alike, the source gives them in different places. Marks after values point to notes of the source that are not given here.

For one series, the system named is AChE. To be noted: read-out: IC50 (AChE inhibition); ref Gadepalli et al., 2007; cited from earlier work.
The conditions of series [1]: olfactory tissues.
A short description of series [2]: Fenthion, fenoxon and fenthion sulfoxide metabolism in liver microsomes. To be noted: for R-fenoxon sulfoxide formation / S-fenoxon sulfoxide formation: liver, substrate 100 μM; for Vmax, Fenoxon formation / Vmax, MMTP (NADPH-dependent) formation / Vmax, MMTP (NADPH-independent) formation / Vmax, R-fenthion sulfoxide formation / Vmax, S-fenthion sulfoxide formation / Vmax, R-fenoxon sulfoxide formation / Vmax, S-fenoxon sulfoxide formation: liver microsomes incubated with fenthion.

A short description of series [3]: Fenthion, fenoxon and fenthion sulfoxide metabolism in gill microsomes. To be noted: gills, substrate 100 μM, bdl: <0.3.
Series [4] has as its system testosterone hydroxylase (CYP3A27-related). The series is described as follows: [14C]Testosterone hydroxylase activity in liver microsomes. To be noted: Ketoconazole 500 μM; below detection; data not shown.
A short description of another series: CYP. To be noted: for reduction of fenoxon formation: liver microsomes, ketoconazole 500 μM; for Fenoxon formation from fenthion / MMTP (NADPH-dependent) formation from fenthion / MMTP (NADPH-independent) formation from fenthion / R-Fenthion sulfoxide formation from fenthion / S-Fenthion sulfoxide formation from fenthion: liver, NADPH+ ketoconazole (500 μM)+ fenthion.

For a further series, the system named is FMO3. To be noted: ref Furnes and Schlenk, 2003, 2004; cited from earlier work.
Series [5] is described as follows: Cleavage in cytosolic incubations. To be noted: data not shown.
The next series addresses T1, recombinant human FMO1 (Homo sapiens, UniProt Q01740).
T1 sequence (Q01740 1-532): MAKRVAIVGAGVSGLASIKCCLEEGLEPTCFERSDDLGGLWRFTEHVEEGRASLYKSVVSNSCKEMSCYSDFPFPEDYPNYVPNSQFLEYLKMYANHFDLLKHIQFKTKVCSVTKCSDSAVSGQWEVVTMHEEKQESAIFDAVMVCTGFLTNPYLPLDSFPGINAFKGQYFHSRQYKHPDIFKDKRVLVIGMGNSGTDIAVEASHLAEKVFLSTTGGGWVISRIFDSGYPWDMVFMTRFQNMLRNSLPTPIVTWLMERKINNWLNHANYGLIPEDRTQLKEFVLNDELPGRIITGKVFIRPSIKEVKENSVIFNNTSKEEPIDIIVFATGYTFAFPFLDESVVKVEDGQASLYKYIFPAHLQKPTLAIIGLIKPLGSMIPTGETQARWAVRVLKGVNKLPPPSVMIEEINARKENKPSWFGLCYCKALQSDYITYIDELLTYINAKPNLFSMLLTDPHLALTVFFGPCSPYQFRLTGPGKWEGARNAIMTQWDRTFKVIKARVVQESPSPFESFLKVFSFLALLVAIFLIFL
The series is described as follows: Biotransformation by recombinant human FMO1. To be noted: fenthion sulfoxide as substrate.

Series [6] can be described thus: TEPP inhibition of MMTP formation from fenthion, liver microsomes. To be noted: freshwater-acclimated. In kind it is biochemical, rainbow trout (Oncorhynchus mykiss).
The nature of series [7]: TEPP inhibition of MMTP formation from fenthion, olfactory tissue microsomes. In kind it is biochemical, rainbow trout (Oncorhynchus mykiss). To be noted: freshwater-acclimated.
The nature of series [8]: TEPP inhibition of MMTP formation from fenthion, gill microsomes. It is filed as biochemical, rainbow trout (Oncorhynchus mykiss). To be noted: Gills, freshwater-acclimated.
Setting [9] is: Table 1, freshwater-acclimated, substrate 100 μM, bdl: <0.3.
Setting [10] is: Table 1, freshwater-acclimated, bdl: <0.3.

`COP(=S)(OC)Oc1ccc([S@@+](C)[O-])c(C)c1` [R-fenthion sulfoxide]: the IC50 in the series with AChE was greater than 1000 µM. For the same molecule, the R-fenoxon sulfoxide formation result in series [1] (setting [9]) is recorded as “bdl”; in [2] (setting [10]) it was 5.2±1.1 pmol/min/mg protein; in series [2] (Table 3, Freshwater, bdl: <0.3) it was 5.2±1.1 pmol/min/mg protein; in series [2] (Table 3, Hypersaline), 9.2±0.3 pmol/min/mg protein; in series [3] (Table 1, freshwater-acclimated) it was 2.9±0.1 pmol/min/mg protein; in series [3] (Table 4, Freshwater), 2.9±0.1 pmol/min/mg protein.

As to `CC(=O)N1CCN(c2ccc(OCC3COC(Cn4ccnc4)(c4ccc(Cl)cc4Cl)O3)cc2)CC1` (centres unmarked) [ketoconazole], the “testosterone hydroxylase activity with inhibitor” value in [4] is given as less than 0.2 pmol/min/mg protein. For the same molecule, the “fenoxon sulfoxide formation with inhibitor” value in “CYP” (liver microsomes from HA fish, co-incubation) is on record as “below detection”. The “reduction of fenoxon formation” value in the series “CYP” (FA fish) is on record as 67%. Besides, the “reduction of fenoxon formation” value in “CYP” (HA fish) was determined as 60%. For the same molecule, in the series “CYP” (Freshwater), the “Fenoxon formation from fenthion” value is recorded as 6.9±1.3 pmol/min/mg protein, the “MMTP (NADPH-dependent) formation from fenthion” value worked out at 121.2±15.3 pmol/min/mg protein, the “MMTP (NADPH-independent) formation from fenthion” value was found to be 5.3±2.1 pmol/min/mg protein and the “R-Fenthion sulfoxide formation from fenthion” value was 16.7±1.7 pmol/min/mg protein. Also, the “S-Fenthion sulfoxide formation from fenthion” value in “CYP” (Freshwater) is 33.7±2.7 pmol/min/mg protein. For the same molecule, in “CYP” (Hypersaline), the “Fenoxon formation from fenthion” value was found to be 16.8±2.4 pmol/min/mg protein, the “MMTP (NADPH-dependent) formation from fenthion” value is listed as 13.2±4.5 pmol/min/mg protein, the “MMTP (NADPH-independent) formation from fenthion” value was determined as 4.5±1.1 pmol/min/mg protein and the “R-Fenthion sulfoxide formation from fenthion” value amounted to 83.4±8.4 pmol/min/mg protein. Moreover, the “S-Fenthion sulfoxide formation from fenthion” value in “CYP” (Hypersaline) is reported as 168.4±13.2 pmol/min/mg protein.

On to `COP(=S)(OC)Oc1ccc(SC)c(C)c1` [Fenthion, O,O-dimethyl-O-(4-methylmlercapto)-3-methylphenylthio-phosphate], for which, in series [1] (setting [9]), the Fenoxon formation result is recorded as “bdl”, the R-fenoxon sulfoxide formation result is “bdl”, the R-fenthion sulfoxide formation result is given as “bdl” and the S-fenoxon sulfoxide formation entry is on record as “bdl”. For the same molecule, the S-fenthion sulfoxide formation entry in [1] (setting [9]) is recorded as “bdl”. In addition, in [1] (HA fish, data not shown), the sulfoxidation entry was “not detected”. In addition, the S-sulfoxide excess formed with FMO3 is 75%. For the same molecule, in [2] (Freshwater), the “Vmax, Fenoxon formation” value worked out at 82.8±4.6 pmol/min/mg protein; the “Vmax, MMTP (NADPH-dependent) formation” value was 199.2±24.4 pmol/min/mg protein; the “Vmax, MMTP (NADPH-independent) formation” value is 53.7±4.8 pmol/min/mg protein; the “Vmax, R-fenthion sulfoxide formation” value is recorded as 78.6±5.2 pmol/min/mg protein. Moreover, the “Vmax, S-fenthion sulfoxide formation” value in series [2] (Freshwater) was 173.4±9.6 pmol/min/mg protein. Moreover, in [2] (Freshwater, bdl: <0.3), the “Vmax, R-fenoxon sulfoxide formation” value is “bdl” and the “Vmax, S-fenoxon sulfoxide formation” value is “bdl”. In series [2] (Hypersaline), the “Vmax, Fenoxon formation” value was found to be 130.0±6.1 pmol/min/mg protein; the “Vmax, MMTP (NADPH-dependent) formation” value was 35.1±1.9 pmol/min/mg protein; the “Vmax, MMTP (NADPH-independent) formation” value is reported as 59.8±10.5 pmol/min/mg protein; the “Vmax, R-fenoxon sulfoxide formation” value is recorded as 7.7±0.6 pmol/min/mg protein. Also, in series [2] (Hypersaline), the “Vmax, R-fenthion sulfoxide formation” value came out at 201.1±11.9 pmol/min/mg protein; the “Vmax, S-fenoxon sulfoxide formation” value came out at 18.4±1.1 pmol/min/mg protein; the “Vmax, S-fenthion sulfoxide formation” value was determined as 355.7±9.4 pmol/min/mg protein. Also, in series [2] (setting [10]), the R-fenoxon sulfoxide formation entry is recorded as “bdl” and the S-fenoxon sulfoxide formation entry was “bdl”. Moreover, in series [2] (Table 3, Freshwater, bdl: <0.3), the R-fenoxon sulfoxide formation entry was “bdl” and the S-fenoxon sulfoxide formation entry is given as “bdl”. For the same molecule, in series [2] (liver microsomes, HA fish), the “efficiency of R-sulfoxide formation relative to fenoxon” value was determined as 2 fold and the “efficiency of S-sulfoxide formation relative to R-sulfoxide” value is “approximately 3 fold”. Further, the “NADPH-independent or dependent cleavage” value in [5] is listed as “not observed”. Moreover, in series [3] (Table 1, freshwater-acclimated), the R-fenoxon sulfoxide formation entry is “bdl” and the S-fenoxon sulfoxide formation result is reported as “bdl”. Also, in series [3] (Table 4, Freshwater), the R-fenoxon sulfoxide formation entry is “bdl” and the S-fenoxon sulfoxide formation entry was “bdl”. Further, in [3] (Table 4, Hypersaline), the R-fenoxon sulfoxide formation entry is given as “bdl” and the S-fenoxon sulfoxide formation result is “bdl”.

Consider `COP(=S)(OC)Oc1ccc([S+](C)[O-])c(C)c1` (centres unmarked) [fenthion sulfoxide], for which the Fenoxon sulfoxides production entry on recombinant human FMO1 was “not produced”.

For the molecule `CCOP(=O)(OCC)OP(=O)(OCC)OCC` [TEPP, tetraethylpyrophosphate], the “MMTP Formation from fenthion, NADPH-dependent” value is on record as 138.4±10.3^a pmol/min/mg protein in series [6] (100 μM TEPP); 65.4±11.1^b pmol/min/mg protein in [6] (500 μM TEPP); “below detection; also recorded: bdl^c” in series [6] (1000 μM TEPP, bdl: <0.3); 254.3±18.1^a pmol/min/mg protein in [7] (100 μM TEPP); 100.2±13.3^b pmol/min/mg protein in [7] (500 μM TEPP); “below detection; also recorded: bdl^c” in series [7] (1000 μM TEPP, bdl: <0.3). In addition, the “MMTP Formation from fenthion, NADPH-dependent” value is on record as 105.3±8.9^a pmol/min/mg protein in series [8] (100 μM TEPP); 74.3±10.1^b pmol/min/mg protein in series [8] (500 μM TEPP); “below detection; also recorded: bdl^c” in [8] (1000 μM TEPP, bdl: <0.3). In addition, the “MMTP Formation from fenthion, NADPH-independent” value in series [6] (500 μM TEPP, bdl: <0.3) is given as “bdl^b”; in [6] (1000 μM TEPP, bdl: <0.3) it was “bdl^b”; in [7] (500 μM TEPP, bdl: <0.3), “bdl^b”; in [7] (1000 μM TEPP, bdl: <0.3), “bdl^b”; in [8] (500 μM TEPP, bdl: <0.3), “bdl^b”; in series [8] (1000 μM TEPP, bdl: <0.3) it was “bdl^b”.

As for `COP(=S)(OC)Oc1ccc([S+](C)[O-])c(C)c1` (centres unmarked) [S-fenthion sulfoxide], the S-fenoxon sulfoxide formation entry is given as “bdl” in series [1] (setting [9]); 6.1±0.2 pmol/min/mg protein in series [2] (setting [10]); 6.1±0.2 pmol/min/mg protein in series [2] (Table 3, Freshwater, bdl: <0.3); 12.2±3.2 pmol/min/mg protein in [2] (Table 3, Hypersaline); 2.3±0.2 pmol/min/mg protein in series [3] (Table 1, freshwater-acclimated); 2.1±0.1 pmol/min/mg protein in series [3] (Table 4, Freshwater).
